Data as given in ChEMBL document CHEMBL1201861, “Genomics of Drug Sensitity in Cancer screening data, Wellcome Trust Sanger Institute”.

How the values were obtained:
Test in all cases: cells
Settings in all cases: Homo sapiens
A2058 = format: functional, cell-based;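 also: reduction of A2058 cell growth, read out with a viability assay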
Description: SANGER: Inhibition of human A2058 cell growth in a cell viability assay.

HO-1-N-1 = format: functional, cell-based;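 also: growth inhibition of human HO-1-N-1 cells, read out with a cell viability assay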
Description: SANGER: Inhibition of human HO-1-N-1 cell growth in a cell viability assay.

CAPAN-1 = format: functional, cell-based;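 also: growth suppression of CAPAN-1 cells, read out by a cell viability assay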
Description: SANGER: Inhibition of human CAPAN-1 cell growth in a cell viability assay.

IST-SL2 = format: functional, cell-based;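 also: growth inhibition of human IST-SL2 cells, read out by a cell viability assay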
Description: SANGER: Inhibition of human IST-SL2 cell growth in a cell viability assay.

U-698-M = format: functional, cell-based
Description: SANGER: Inhibition of human U-698-M cell growth in a cell viability assay.

TYK-nu = format: functional, cell-based;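 also: growth inhibition of human TYK-nu cells, read out by a cell viability assay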
Description: SANGER: Inhibition of human TYK-nu cell growth in a cell viability assay.

5637 = format: functional, cell-based
Description: SANGER: Inhibition of human 5637 cell growth in a cell viability assay.

BHT-101 = format: functional, cell-based
Description: SANGER: Inhibition of human BHT-101 cell growth in a cell viability assay.

JEG-3 = format: functional, cell-based;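 also: growth inhibition of human JEG-3 cells, read out with a cell viability assay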
Description: SANGER: Inhibition of human JEG-3 cell growth in a cell viability assay.

BT-20 = format: functional, cell-based;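 also: cell viability assay measuring suppression of growth in human BT-20 cells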
Description: SANGER: Inhibition of human BT-20 cell growth in a cell viability assay.

D-336MG = format: functional, cell-based
Description: SANGER: Inhibition of human D-336MG cell growth in a cell viability assay.

COLO-792 = format: functional, cell-based
Description: SANGER: Inhibition of human COLO-792 cell growth in a cell viability assay.

SK-LU-1 = format: functional, cell-based;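 also: cell viability assay measuring growth inhibition of human SK-LU-1 cells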
Description: SANGER: Inhibition of human SK-LU-1 cell growth in a cell viability assay.

Detroit 562 = format: functional, cell-based;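 also: growth inhibition of human Detroit 562 cells, read out by a cell viability assay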
Description: SANGER: Inhibition of human Detroit562 cell growth in a cell viability assay.

SBC-5 = format: functional, cell-based;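 also: cell viability assay read-out, IC50 is the concentration that inhibits growth of the cells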
Description: SANGER: Inhibition of human SBC-5 cell growth in a cell viability assay.

Daudi = format: functional, cell-based;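 also: growth inhibition of Daudi cells, read out by a viability assay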
Description: SANGER: Inhibition of human Daudi cell growth in a cell viability assay.

SW1710 = format: functional, cell-based;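 also: growth inhibition of SW1710 cells, determined with a cell viability assay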
Description: SANGER: Inhibition of human SW1710 cell growth in a cell viability assay.

NCI-H630 = format: functional, cell-based;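 also: growth inhibition of NCI-H630 cells, read out with a cell viability assay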
Description: SANGER: Inhibition of human NCI-H630 cell growth in a cell viability assay.

SCC-4 = format: functional, cell-based;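 also: growth inhibition of human SCC-4 cells, read out as cell viability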
Description: SANGER: Inhibition of human SCC-4 cell growth in a cell viability assay.

LCLC-97TM1 = format: functional, cell-based;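 also: cell viability assay measuring growth inhibition of human LCLC-97TM1 cells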
Description: SANGER: Inhibition of human LCLC-97TM1 cell growth in a cell viability assay.

P31-FUJ = format: functional, cell-based;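 also: growth inhibition of P31-FUJ cells, read out with a viability assay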
Description: SANGER: Inhibition of human P31-FUJ cell growth in a cell viability assay.

EB2 = format: functional, cell-based;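 also: growth inhibition of EB2 cells, read out with a cell viability assay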
Description: SANGER: Inhibition of human EB2 cell growth in a cell viability assay.

MDA-MB-134-VI = format: functional, cell-based
Description: SANGER: Inhibition of human MDA-MB-134-VI cell growth in a cell viability assay.

NCI-H719 = format: functional, cell-based;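 also: growth inhibition of the cultured cell line, read out with a viability assay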
Description: SANGER: Inhibition of human NCI-H719 cell growth in a cell viability assay.

ABC-1 = format: functional, cell-based;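 also: growth inhibition of human ABC-1 cells, read out by a cell viability assay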
Description: SANGER: Inhibition of human ABC-1 cell growth in a cell viability assay.

NCI-H650 = format: functional, cell-based;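 also: growth inhibition of NCI-H650 cells, read out by a viability assay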
Description: SANGER: Inhibition of human NCI-H650 cell growth in a cell viability assay.

RD = format: functional, cell-based
Description: SANGER: Inhibition of human RD cell growth in a cell viability assay.

SNU-387 = format: functional, cell-based
Description: SANGER: Inhibition of human SNU-387 cell growth in a cell viability assay.

C32 = format: functional, cell-based;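 also: cell viability assay, with IC50 reflecting inhibition of C32 cell growth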
Description: SANGER: Inhibition of human C32 cell growth in a cell viability assay.

M14 = format: functional, cell-based;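 also: growth inhibition of M14 cells, read out with a cell viability assay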
Description: SANGER: Inhibition of human M14 cell growth in a cell viability assay.

Ca9-22 = format: functional, cell-based;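 also: growth inhibition of Ca9-22 cells, read out with a cell viability assay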
Description: SANGER: Inhibition of human Ca9-22 cell growth in a cell viability assay.

LN-405 = format: functional, cell-based
Description: SANGER: Inhibition of human LN-405 cell growth in a cell viability assay.

23132-87 = format: functional, cell-based
Description: SANGER: Inhibition of human 23132-87 cell growth in a cell viability assay.

MKN-28 = format: functional, cell-based;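 also: cell viability assay read-out, IC50 reflects suppression of growth of human MKN-28 cells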
Description: SANGER: Inhibition of human MKN28 cell growth in a cell viability assay.

T98G = format: functional, cell-based;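 also: growth inhibition of T98G cells, read out by a cell viability assay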
Description: SANGER: Inhibition of human T98G cell growth in a cell viability assay.

MEL-JUSO = format: functional, cell-based;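 also: growth inhibition of human MEL-JUSO cells, read out with a cell viability assay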
Description: SANGER: Inhibition of human MEL-JUSO cell growth in a cell viability assay.

647-V = format: functional, cell-based;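 also: growth inhibition of 647-V cells, read out with a cell viability assay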
Description: SANGER: Inhibition of human 647-V cell growth in a cell viability assay.

OVCAR-8 = format: functional, cell-based;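 also: growth inhibition of human OVCAR-8 cells, read out by a cell viability assay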
Description: SANGER: Inhibition of human OVCAR-8 cell growth in a cell viability assay.

SK-HEP1 = format: functional, cell-based, SK-HEP-1;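 also: cell viability readout used to quantify reduction in proliferation of human SK-HEP-1 cells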
Description: SANGER: Inhibition of human SK-HEP-1 cell growth in a cell viability assay.

MC-IXC = format: functional, cell-based;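 also: growth inhibition of MC-IXC cells, read out with a cell viability assay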
Description: SANGER: Inhibition of human MC-IXC cell growth in a cell viability assay.

EFO-21 = format: functional, cell-based;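 also: growth inhibition of EFO-21 cells measured with a viability assay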
Description: SANGER: Inhibition of human EFO-21 cell growth in a cell viability assay.

MRK-nu-1 = format: functional, cell-based;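 also: cell viability assay measuring growth suppression of human MRK-nu-1 cells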
Description: SANGER: Inhibition of human MRK-nu-1 cell growth in a cell viability assay.

NCI-H748 = format: functional, cell-based;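 also: growth inhibition of NCI-H748 cells, measured by a cell viability assay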
Description: SANGER: Inhibition of human NCI-H748 cell growth in a cell viability assay.

GP5d = format: functional, cell-based;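 also: growth inhibition of human GP5d cells, read out with a cell viability assay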
Description: SANGER: Inhibition of human GP5d cell growth in a cell viability assay.

SW-620 = format: functional, cell-based;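 also: growth inhibition of human SW-620 cells, measured by a cell viability assay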
Description: SANGER: Inhibition of human SW620 cell growth in a cell viability assay.

KYSE-510 = format: functional, cell-based;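 also: cell viability readout used to measure how strongly growth of the cell line is suppressed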
Description: SANGER: Inhibition of human KYSE-510 cell growth in a cell viability assay.

MCF7 = format: functional, cell-based;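 also: growth inhibition of human MCF7 cells, read out with a cell viability assay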
Description: SANGER: Inhibition of human MCF7 cell growth in a cell viability assay.

SK-MEL-24 = format: functional, cell-based;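 also: growth inhibition read out by a cell viability assay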
Description: SANGER: Inhibition of human SK-MEL-24 cell growth in a cell viability assay.

YAPC = format: functional, cell-based;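 also: growth inhibition of YAPC cells, measured with a cell viability assay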
Description: SANGER: Inhibition of human YAPC cell growth in a cell viability assay.

NCI-H2141 = format: functional, cell-based;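 also: growth inhibition of human NCI-H2141 cells, read out with a cell viability assay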
Description: SANGER: Inhibition of human NCI-H2141 cell growth in a cell viability assay.

SAOS-2 = format: functional, cell-based;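 also: growth inhibition of human Saos-2 cells determined by a cell viability assay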
Description: SANGER: Inhibition of human Saos-2 cell growth in a cell viability assay.

HCC38 = format: functional, cell-based;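 also: cell viability assay on the human HCC38 cell line, with IC50 marking the concentration that inhibits cell growth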
Description: SANGER: Inhibition of human HCC38 cell growth in a cell viability assay.

NCI-H2009 = format: functional, cell-based;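 also: cell viability assay measuring inhibition of NCI-H2009 cell growth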
Description: SANGER: Inhibition of human NCI-H2009 cell growth in a cell viability assay.

NCI-H1993 = format: functional, cell-based;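 also: growth inhibition of the cancer cell line, assessed with a cell viability assay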
Description: SANGER: Inhibition of human NCI-H1993 cell growth in a cell viability assay.

D-247MG = format: functional, cell-based
Description: SANGER: Inhibition of human D-247MG cell growth in a cell viability assay.

NCI-H2171 = format: functional, cell-based;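 also: growth inhibition of human NCI-H2171 cells, read out by a cell viability assay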
Description: SANGER: Inhibition of human NCI-H2171 cell growth in a cell viability assay.

KYSE-180 = format: functional, cell-based;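 also: growth inhibition of KYSE-180 cells, read out with a cell viability assay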
Description: SANGER: Inhibition of human KYSE-180 cell growth in a cell viability assay.

SW1463 = format: functional, cell-based;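 also: growth inhibition of SW1463 cells, determined with a cell viability assay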
Description: SANGER: Inhibition of human SW1463 cell growth in a cell viability assay.

SNU-423 = format: functional, cell-based
Description: SANGER: Inhibition of human SNU-423 cell growth in a cell viability assay.

639-V = format: functional, cell-based;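 also: growth inhibition of 639-V cells, read out with a cell viability assay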
Description: SANGER: Inhibition of human 639-V cell growth in a cell viability assay.

HCC2157 = format: functional, cell-based;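 also: growth inhibition of the cancer cell line, read out as cell viability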
Description: SANGER: Inhibition of human HCC2157 cell growth in a cell viability assay.

SiHa = format: functional, cell-based
Description: SANGER: Inhibition of human SiHa cell growth in a cell viability assay.

S-117 = format: functional, cell-based
Description: SANGER: Inhibition of human S-117 cell growth in a cell viability assay.

BEN = format: functional, cell-based
Description: SANGER: Inhibition of human BEN cell growth in a cell viability assay.

MOLT-13 = format: functional, cell-based
Description: SANGER: Inhibition of human MOLT-13 cell growth in a cell viability assay.

O=c1[nH]c2ccccc2n1C1CCN(Cc2ccc(-c3nc4cc5[nH]cnc5cc4nc3-c3ccccc3)cc2)CC1
IC50 (A2058): > 2.56 µM
IC50 (HO-1-N-1): > 2.56 µM
IC50 (CAPAN-1): > 2.56 µM
IC50 (IST-SL2): > 2.56 µM
IC50 (U-698-M): > 2.56 µM
IC50 (TYK-nu): > 2.56 µM
IC50 5637: > 2.56 µM
IC50 (BHT-101): > 2.56 µM
IC50 (JEG-3): > 2.56 µM
IC50 (BT-20): > 2.56 µM
IC50 (D-336MG): > 2.56 µM
IC50 (COLO-792): > 2.56 µM
IC50 (SK-LU-1): > 2.56 µM
IC50 (Detroit 562): > 2.56 µM
IC50 (SBC-5): > 2.56 µM
IC50 (Daudi): > 2.56 µM
IC50 (SW1710): 1.39 µM
IC50 (NCI-H630): > 2.56 µM
IC50 (SCC-4): > 2.56 µM
IC50 (LCLC-97TM1): 2.3 µM
IC50 (P31-FUJ): > 2.56 µM
IC50 (EB2): > 2.56 µM
IC50 (MDA-MB-134-VI): > 2.56 µM
IC50 (NCI-H719): > 2.56 µM
IC50 (ABC-1): > 2.56 µM
IC50 (NCI-H650): > 2.56 µM
IC50 (RD): > 2.56 µM
IC50 (SNU-387): > 2.56 µM
IC50 (C32): > 2.56 µM
IC50 (M14): > 2.56 µM
IC50 (Ca9-22): > 2.56 µM
IC50 (LN-405): > 2.56 µM
IC50 (23132-87): 0.759 µM
IC50 (MKN-28): > 2.56 µM
IC50 (T98G): > 2.56 µM
IC50 (MEL-JUSO): > 2.56 µM
IC50 (647-V): > 2.56 µM
IC50 (OVCAR-8): > 2.56 µM
IC50 (SK-HEP1): > 2.56 µM
IC50 (MC-IXC): 2.06 µM
IC50 (EFO-21): > 2.56 µM
IC50 (MRK-nu-1): > 2.56 µM
IC50 (NCI-H748): > 2.56 µM
IC50 (GP5d): > 2.56 µM
IC50 (SW-620): > 2.56 µM
IC50 (KYSE-510): 2.21 µM
IC50 (MCF7): > 2.56 µM
IC50 (SK-MEL-24): > 2.56 µM
IC50 (YAPC): > 2.56 µM
IC50 (NCI-H2141): > 2.56 µM
IC50 (SAOS-2): > 2.56 µM
IC50 (HCC38): > 2.56 µM
IC50 (NCI-H2009): > 2.56 µM
IC50 (NCI-H1993): > 2.56 µM
IC50 (D-247MG): > 2.56 µM
IC50 (NCI-H2171): > 2.56 µM
IC50 (KYSE-180): > 2.56 µM
IC50 (SW1463): > 2.56 µM
IC50 (SNU-423): > 2.56 µM
IC50 (639-V): > 2.56 µM
IC50 (HCC2157): > 2.56 µM
IC50 (SiHa): > 2.56 µM
IC50 (S-117): > 2.56 µM
IC50 (BEN): > 2.56 µM

Cn1c(=O)n(-c2ccc(C(C)(C)C#N)cc2)c2c3cc(-c4cnc5ccccc5c4)ccc3ncc21 [DACTOLISIB]
IC50 (A2058): 0.0332 µM
IC50 (HO-1-N-1): 0.0252 µM
IC50 (CAPAN-1): > 2 µM
IC50 (TYK-nu): 0.00994 µM
IC50 5637: 0.0792 µM
IC50 (BHT-101): 0.03 µM
IC50 (JEG-3): 0.0841 µM
IC50 (BT-20): 0.112 µM
IC50 (COLO-792): 0.354 µM
IC50 (SK-LU-1): 0.0262 µM
IC50 (Detroit 562): 0.102 µM
IC50 (SBC-5): 0.0835 µM
IC50 (SW1710): 0.0187 µM
IC50 (NCI-H630): 0.913 µM
IC50 (SCC-4): 0.0714 µM
IC50 (LCLC-97TM1): 0.0829 µM
IC50 (ABC-1): 0.42 µM
IC50 (NCI-H650): 0.0941 µM
IC50 (RD): 0.0759 µM
IC50 (SNU-387): 0.104 µM
IC50 (C32): 0.0538 µM
IC50 (M14): 0.06 µM
IC50 (Ca9-22): 0.0336 µM
IC50 (LN-405): 0.0639 µM
IC50 (MKN-28): 1.09 µM
IC50 (T98G): 0.0299 µM
IC50 (647-V): 0.0781 µM
IC50 (OVCAR-8): 0.0313 µM
IC50 (SK-HEP1): 0.046 µM
IC50 (MC-IXC): 0.0701 µM
IC50 (EFO-21): 0.288 µM
IC50 (GP5d): 0.434 µM
IC50 (SW-620): 0.0504 µM
IC50 (KYSE-510): 0.0658 µM
IC50 (MCF7): 0.0486 µM
IC50 (MOLT-13): 0.113 µM
IC50 (SK-MEL-24): 0.517 µM
IC50 (YAPC): 0.491 µM
IC50 (SAOS-2): 0.179 µM
IC50 (HCC38): 0.266 µM
IC50 (NCI-H1993): > 2 µM
IC50 (D-247MG): 0.135 µM
IC50 (KYSE-180): 0.0462 µM
IC50 (SW1463): 0.739 µM
IC50 (SNU-423): 0.068 µM
IC50 (639-V): 0.0854 µM
IC50 (HCC2157): 0.128 µM
IC50 (SiHa): 0.329 µM
IC50 (S-117): 0.0763 µM
IC50 (BEN): 0.0316 µM
